Reference: ChEMBL document CHEMBL4421723, “Novel drug targets to overcome de novo drug-resistance in multiple myeloma” (2013)
The source made the active and inactive calls. The calls are words filed in the database; no cut-off is given here.

Key:
[1] = target: DNA topoisomerase 2-alpha (Homo sapiens) (UniProt P11388); experiment: Inhibition of nuclear export signal of topoisomerase 2alpha in human NCI-H929 cells assessed as reduction in cytoplasmic localization of Top2alpha at 100 uM incubated for 24 hrs by Western blot analysis; assay type: cell-based
Chain of DNA topoisomerase 2-alpha (Homo sapiens) (P11388 whole entry): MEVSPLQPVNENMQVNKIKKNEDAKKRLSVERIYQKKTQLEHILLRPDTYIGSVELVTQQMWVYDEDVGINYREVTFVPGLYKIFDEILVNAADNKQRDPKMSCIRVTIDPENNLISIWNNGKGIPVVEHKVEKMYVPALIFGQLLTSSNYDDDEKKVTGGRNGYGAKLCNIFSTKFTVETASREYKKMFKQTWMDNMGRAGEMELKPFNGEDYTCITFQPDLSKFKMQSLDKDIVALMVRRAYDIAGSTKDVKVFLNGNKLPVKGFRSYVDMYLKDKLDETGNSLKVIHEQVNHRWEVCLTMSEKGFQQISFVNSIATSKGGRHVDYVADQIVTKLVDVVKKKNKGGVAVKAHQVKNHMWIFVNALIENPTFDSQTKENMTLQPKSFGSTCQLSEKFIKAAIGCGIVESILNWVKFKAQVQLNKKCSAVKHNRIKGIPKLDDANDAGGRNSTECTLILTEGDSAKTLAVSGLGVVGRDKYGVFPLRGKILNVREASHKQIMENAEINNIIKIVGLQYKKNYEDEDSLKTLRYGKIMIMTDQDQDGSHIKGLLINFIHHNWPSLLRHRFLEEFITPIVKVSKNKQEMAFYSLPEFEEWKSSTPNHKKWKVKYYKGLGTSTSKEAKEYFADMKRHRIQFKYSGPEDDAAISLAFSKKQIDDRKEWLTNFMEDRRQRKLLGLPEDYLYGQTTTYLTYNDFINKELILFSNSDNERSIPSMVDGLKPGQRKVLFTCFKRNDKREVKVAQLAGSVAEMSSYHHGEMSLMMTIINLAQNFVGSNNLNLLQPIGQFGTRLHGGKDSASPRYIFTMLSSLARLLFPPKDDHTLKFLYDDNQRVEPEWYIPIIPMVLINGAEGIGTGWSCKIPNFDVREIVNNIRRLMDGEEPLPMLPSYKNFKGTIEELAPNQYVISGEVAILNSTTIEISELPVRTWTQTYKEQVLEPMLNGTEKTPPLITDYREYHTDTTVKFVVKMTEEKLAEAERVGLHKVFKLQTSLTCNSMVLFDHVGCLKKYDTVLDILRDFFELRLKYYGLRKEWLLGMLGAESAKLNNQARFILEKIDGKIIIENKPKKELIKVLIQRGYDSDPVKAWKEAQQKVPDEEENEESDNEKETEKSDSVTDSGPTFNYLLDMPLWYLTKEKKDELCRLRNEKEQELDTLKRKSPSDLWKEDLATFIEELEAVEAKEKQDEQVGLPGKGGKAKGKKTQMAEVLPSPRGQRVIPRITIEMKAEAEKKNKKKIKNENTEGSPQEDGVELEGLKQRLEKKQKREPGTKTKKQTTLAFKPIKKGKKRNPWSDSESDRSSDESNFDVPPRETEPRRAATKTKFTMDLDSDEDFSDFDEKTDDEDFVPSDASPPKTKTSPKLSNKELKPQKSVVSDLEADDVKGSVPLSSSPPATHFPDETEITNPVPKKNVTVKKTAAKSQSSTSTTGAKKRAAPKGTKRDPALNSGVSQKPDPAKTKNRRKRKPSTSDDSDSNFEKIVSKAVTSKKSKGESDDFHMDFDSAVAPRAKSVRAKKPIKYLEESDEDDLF

[2] = target: DNA topoisomerase 2-alpha (Homo sapiens) (UniProt P11388); experiment: Binding affinity to nuclear export signal of topoisomerase 2alpha in human NCI-H929 cells assessed as potentiation of doxorubicin-induced apoptosis by measuring increase in cleaved caspase-3 levels at 25 uM pre-incubated for 20 hrs followed by addition of doxorubicin for 4 hrs; assay type: cell-based
[3] = target: DNA topoisomerase 2-alpha (Homo sapiens) (UniProt P11388); experiment: Binding affinity to nuclear export signal of topoisomerase 2alpha in human RPMI8226 cells assessed as potentiation of doxorubicin-induced apoptosis by measuring increase in cleaved caspase-3 levels at 25 uM pre-incubated for 20 hrs followed by addition of doxorubicin for 4 hrs; assay type: cell-based
[4] = target: DNA topoisomerase 2-alpha (Homo sapiens) (UniProt P11388); experiment: Binding affinity to nuclear export signal of topoisomerase 2alpha in human U266 cells assessed as potentiation of doxorubicin-induced apoptosis by measuring increase in cleaved caspase-3 levels at 25 uM pre-incubated for 20 hrs followed by addition of doxorubicin for 4 hrs; assay type: cell-based
[5] = tested on: NCI-H929; experiment: Induction of apoptosis in human NCI-H929 cells assessed as increase in cleaved caspase-3 levels at 25 uM incubated for 20 hrs; assay type: functional, cell-based
[6] = tested on: RPMI-8226; experiment: Induction of apoptosis in human RPMI8226 cells assessed as increase in cleaved caspase-3 levels at 25 uM incubated for 20 hrs; assay type: functional, cell-based
[7] = tested on: U-266; experiment: Induction of apoptosis in human U266 cells assessed as increase in cleaved caspase-3 levels at 25 uM incubated for 20 hrs; assay type: functional, cell-based
[8] = target: DNA topoisomerase II (Homo sapiens) (UniProt P11388+Q02880); experiment: Inhibition of decatenation activity of human topoisomerase 2 using kinetoplast DNA up to 50 uM incubated for 30 mins by agarose gel electrophoresis; assay type: protein assay
[9] = tested on: RPMI-8226; experiment: Effect on Top2alpha protein levels in human RPMI8226 cells at 25 uM incubated for 20 hrs by Western blot analysis; assay type: cell-based; conditions: rpmi-8226, 20 h
[10] = target: Cellular tumor antigen p53 (Homo sapiens) (UniProt P04637); experiment: Inhibition of p53 nuclear export in human NCI-H929 cells at 25 uM incubated for 20 hrs by Western blot analysis; assay type: cell-based
Chain of Cellular tumor antigen p53 (Homo sapiens) (P04637 whole entry, looked up): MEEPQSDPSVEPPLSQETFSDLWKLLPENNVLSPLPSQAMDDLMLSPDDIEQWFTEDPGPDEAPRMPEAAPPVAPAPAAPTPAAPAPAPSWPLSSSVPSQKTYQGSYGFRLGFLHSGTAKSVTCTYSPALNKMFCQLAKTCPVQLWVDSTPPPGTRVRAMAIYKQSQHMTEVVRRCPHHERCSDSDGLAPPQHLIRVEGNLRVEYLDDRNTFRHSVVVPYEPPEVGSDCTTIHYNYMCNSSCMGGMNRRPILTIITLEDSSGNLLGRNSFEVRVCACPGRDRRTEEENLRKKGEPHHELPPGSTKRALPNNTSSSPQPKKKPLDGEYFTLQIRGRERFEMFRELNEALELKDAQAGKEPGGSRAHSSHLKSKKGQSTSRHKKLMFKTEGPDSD

[11] = target: DNA topoisomerase 2-alpha (Homo sapiens) (UniProt P11388); experiment: Binding affinity to nuclear export signal of topoisomerase 2alpha in human WI38 cells assessed as potentiation of doxorubicin-induced apoptosis by measuring increase in cleaved caspase-3 levels at 25 uM pre-incubated for 20 hrs followed by addition of doxorubicin for 4 hrs; assay type: cell-based
[12] = target: DNA topoisomerase 2-alpha (Homo sapiens) (UniProt P11388); experiment: Binding affinity to nuclear export signal of topoisomerase 2alpha in human Flow 2000 cells assessed as potentiation of doxorubicin-induced apoptosis by measuring increase in cleaved caspase-3 levels at 25 uM pre-incubated for 20 hrs followed by addition of doxorubicin for 4 hrs; assay type: cell-based
[13] = target: DNA topoisomerase 2-alpha (Homo sapiens) (UniProt P11388); experiment: Binding affinity to nuclear export signal of topoisomerase 2alpha in human PBMC cells assessed as potentiation of doxorubicin-induced apoptosis by measuring increase in cleaved caspase-3 levels at 25 uM pre-incubated for 20 hrs followed by addition of doxorubicin for 4 hrs; assay type: cell-based
[14] = target: DNA topoisomerase 2-alpha (Homo sapiens) (UniProt P11388); experiment: Binding affinity to nuclear export signal of topoisomerase 2alpha in human KG1a cells assessed as potentiation of doxorubicin-induced apoptosis by measuring increase in cleaved caspase-3 levels at 25 uM pre-incubated for 20 hrs followed by addition of doxorubicin for 4 hrs; assay type: cell-based
[15] = target: DNA topoisomerase 2-alpha (Homo sapiens) (UniProt P11388); experiment: Binding affinity to nuclear export signal of topoisomerase 2alpha in human HL60 cells assessed as potentiation of doxorubicin-induced apoptosis by measuring increase in cleaved caspase-3 levels at 25 uM pre-incubated for 20 hrs followed by addition of doxorubicin for 4 hrs; assay type: cell-based
[16] = target: DNA topoisomerase 2-alpha (Homo sapiens) (UniProt P11388); experiment: Binding affinity to nuclear export signal of topoisomerase 2alpha in human MCF7 cells assessed as potentiation of doxorubicin-induced apoptosis by measuring increase in cleaved caspase-3 levels at 25 uM pre-incubated for 20 hrs followed by addition of doxorubicin for 4 hrs; assay type: cell-based
[17] = target: Exportin-1 (Homo sapiens) (UniProt O14980); experiment: Inhibition of CRM1 in human NCI-H929 cells assessed as increase in nuclear localization of Top2alpha at 50 uM incubated for 2 hrs by Western blot analysis; assay type: cell-based
Chain of Exportin-1 (Homo sapiens) (O14980 whole entry): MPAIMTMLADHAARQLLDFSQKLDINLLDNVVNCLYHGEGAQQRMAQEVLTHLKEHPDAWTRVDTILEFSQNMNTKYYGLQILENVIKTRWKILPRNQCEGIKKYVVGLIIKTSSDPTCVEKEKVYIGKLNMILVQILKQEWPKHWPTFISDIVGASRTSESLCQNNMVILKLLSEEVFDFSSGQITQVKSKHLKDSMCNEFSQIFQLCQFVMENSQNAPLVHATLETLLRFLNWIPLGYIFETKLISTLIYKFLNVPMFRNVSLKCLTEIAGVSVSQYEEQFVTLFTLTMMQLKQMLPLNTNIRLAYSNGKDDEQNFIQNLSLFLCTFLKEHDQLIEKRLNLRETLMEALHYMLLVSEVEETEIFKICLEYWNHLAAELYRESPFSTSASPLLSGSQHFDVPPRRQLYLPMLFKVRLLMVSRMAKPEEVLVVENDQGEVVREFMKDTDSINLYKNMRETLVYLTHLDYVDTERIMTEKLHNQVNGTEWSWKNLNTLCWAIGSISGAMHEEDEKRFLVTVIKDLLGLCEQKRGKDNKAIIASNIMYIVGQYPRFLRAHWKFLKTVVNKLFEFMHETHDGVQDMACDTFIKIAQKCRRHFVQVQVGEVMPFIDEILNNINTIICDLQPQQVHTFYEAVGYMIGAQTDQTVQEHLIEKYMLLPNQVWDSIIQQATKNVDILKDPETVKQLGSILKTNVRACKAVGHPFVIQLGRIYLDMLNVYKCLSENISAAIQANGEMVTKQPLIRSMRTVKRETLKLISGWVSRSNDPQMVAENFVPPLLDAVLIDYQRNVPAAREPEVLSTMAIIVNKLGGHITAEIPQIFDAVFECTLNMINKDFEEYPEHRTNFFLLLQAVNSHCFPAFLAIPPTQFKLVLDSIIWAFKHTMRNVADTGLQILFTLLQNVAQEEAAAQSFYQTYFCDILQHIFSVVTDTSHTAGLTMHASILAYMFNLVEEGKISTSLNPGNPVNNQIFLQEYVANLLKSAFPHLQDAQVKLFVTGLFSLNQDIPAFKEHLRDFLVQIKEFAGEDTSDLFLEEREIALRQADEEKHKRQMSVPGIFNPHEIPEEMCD

[18] = target: DNA topoisomerase 2-alpha (Homo sapiens) (UniProt P11388); experiment: Inhibition of nuclear export signal of topoisomerase 2alpha in human NCI-H929 cells assessed as reduction in Top2alpha binding to CRM1 at 25 uM incubated for 20 hrs by Western blot analysis and co-immunoprecipitation analysis; assay type: cell-based
[19] = target: DNA topoisomerase 2-alpha (Homo sapiens) (UniProt P11388); experiment: Inhibition of nuclear export signal of topoisomerase 2alpha in human NCI-H929 cells assessed as increase in nuclear localization of Top2alpha at 50 uM incubated for 2 hrs by Western blot analysis; assay type: cell-based

Row | inhibition [1] | Activity [2] | Activity [3] | Activity [4] | Structure (SMILES) | Activity [5] | Activity [6] | Activity [7] | inhibition [8] | Activity [9] | inhibition [10] | inhibition [11] | inhibition [12] | inhibition [13] | inhibition [14] | inhibition [15] | inhibition [16] | inhibition [17] | inhibition [18] | inhibition [19]
1 | inactive | Active | Active | Active | Clc1cc(Cl)c(C[N+]23CN4CN(CN(C4)C2)C3)cc1Cl | inactive | inactive | inactive | inactive | Non-Toxic | inactive | inactive | inactive | inactive | inactive | inactive | Active | – | – | –
2 | – | Active | Active | Active | COCN1CCC2N(COC)CCC3N(COC)CCC1N23 (stereo unspecified) | inactive | inactive | inactive | – | – | – | – | – | – | – | – | – | – | – | –
3 | – | Active | Active | Active | C1CN2C(=N1)N1CCN=C1N1CCN=C21 | inactive | inactive | inactive | – | – | – | – | – | – | – | – | – | – | – | –

Further lines, the compound ahead of its results:

Row | Structure (SMILES) | inhibition [1] | Activity [2] | Activity [3] | Activity [4] | Activity [5] | Activity [6] | Activity [7] | inhibition [8] | Activity [9] | inhibition [10] | inhibition [11] | inhibition [12] | inhibition [13] | inhibition [14] | inhibition [15] | inhibition [16] | inhibition [17] | inhibition [18] | inhibition [19]
4 | O=C(C[N+]12CN3CN(CN(C3)C1)C2)c1ccc(Br)cc1 | inactive | – | – | – | – | – | – | – | – | – | – | – | – | – | – | – | – | – | –
5 | O=C(Nc1ccc(C2=NCCN2)cc1)c1ccc(C(=O)Nc2ccc(C3=NCCN3)cc2)c([N+](=O)[O-])c1 | Active | Active | Active | Active | inactive | inactive | inactive | inactive | Non-Toxic | inactive | inactive | inactive | inactive | inactive | inactive | Active | – | – | –
6 | C/C=C/[C@@H]1O[C@H]([C@H](O)/C=C/C=C/C[C@@H](C)/C=C(\C=C\[C@H]2CC=CC(=O)O2)CC)C[C@@H](O)[C@@H]1C | – | – | – | – | – | – | – | – | – | – | – | – | – | – | – | – | Active | – | –
7 | Brc1ccc(C[N+]23CN4CN(CN(C4)C2)C3)cc1 | Active | Active | Active | Active | inactive | inactive | inactive | inactive | Non-Toxic | Active | inactive | inactive | inactive | inactive | inactive | Active | – | – | –
8 | O=C1c2ccccc2C(=O)C1C(=O)C(c1ccccc1)c1ccccc1 [DIPHENADIONE] | Active | Active | Active | Active | inactive | inactive | inactive | inactive | Non-Toxic | inactive | inactive | inactive | inactive | inactive | inactive | Active | – | Active | Active
9 | c1ccc(C2NNC(c3ccccc3)NN2)cc1 (stereo unspecified) | – | Active | Active | Active | inactive | inactive | inactive | – | – | – | – | – | – | – | – | – | – | – | –
